Assay results published in patent US20260207602A1, “EGFR INHIBITORS” (Blueprint Medicines Corporation, priority 2022, published 2026).
One block for each molecule: values may come before it.

Tests used:
[1] = target: intracellular phosphorylation of EGFR (Tyr1068) in PC-9 cells (Homo sapiens, UniProt P00533, DEL746-750); test: PC-9 pEGFR AlphaLISA assay; type: cell-based; settings: 4 hours incubation, read-out: Phos EGFR PC9 IC50
Outline: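 PC-9 cells (EGFR del746-750) in phenol-free DMEM/10% FBS, adhered overnight, then exposed to 10-point 4-fold compound dilutions for 4 h at 37 °C. Lysates assayed for pEGFR Tyr1068 by AlphaLISA SureFire Ultra; IC50 from percent pEGFR inhibition vs log concentration.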

[2] = target: T1, EGFR L858R (Homo sapiens, UniProt P00533, L858R); test: Biochemical EGFR inhibition assay (Caliper mobility shift), EGFR L858R; settings: biochemical Caliper mobility shift assay, EGFR L858R enzyme; read-out: Enz EGFR L858R IC50
T1 construct: purchased SignalChem E10-122BG
Outline: (§1)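 Compounds were titrated against enzyme phosphorylating a 5-FAM peptide (2.5 µM) in 100 mM HEPES, pH 7.5, 10 mM MgCl2, 1 mM DTT. ATP was held at 1.0 mM or at Km, and reactions ran at 25 °C until 10–20% conversion before EDTA quench. Apparent IC50 values come from percent activity plotted against log concentration.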

[3] = target: T2, EGFR (d746-750) (Homo sapiens, UniProt P00533, DEL746-750); test: Biochemical EGFR inhibition assay (Caliper mobility shift), EGFR (d746-750); settings: biochemical Caliper mobility shift assay, EGFR Exon 19-del enzyme; read-out: Enz EGFR Exon 19-del IC50
T2 construct: purchased SignalChem E10-122JG
Outline: as §1

intracellular phosphorylation of EGFR (Tyr1068) in PC-9 cells, sequence (P00533 with tags, fused parts or gaps DEL746-750): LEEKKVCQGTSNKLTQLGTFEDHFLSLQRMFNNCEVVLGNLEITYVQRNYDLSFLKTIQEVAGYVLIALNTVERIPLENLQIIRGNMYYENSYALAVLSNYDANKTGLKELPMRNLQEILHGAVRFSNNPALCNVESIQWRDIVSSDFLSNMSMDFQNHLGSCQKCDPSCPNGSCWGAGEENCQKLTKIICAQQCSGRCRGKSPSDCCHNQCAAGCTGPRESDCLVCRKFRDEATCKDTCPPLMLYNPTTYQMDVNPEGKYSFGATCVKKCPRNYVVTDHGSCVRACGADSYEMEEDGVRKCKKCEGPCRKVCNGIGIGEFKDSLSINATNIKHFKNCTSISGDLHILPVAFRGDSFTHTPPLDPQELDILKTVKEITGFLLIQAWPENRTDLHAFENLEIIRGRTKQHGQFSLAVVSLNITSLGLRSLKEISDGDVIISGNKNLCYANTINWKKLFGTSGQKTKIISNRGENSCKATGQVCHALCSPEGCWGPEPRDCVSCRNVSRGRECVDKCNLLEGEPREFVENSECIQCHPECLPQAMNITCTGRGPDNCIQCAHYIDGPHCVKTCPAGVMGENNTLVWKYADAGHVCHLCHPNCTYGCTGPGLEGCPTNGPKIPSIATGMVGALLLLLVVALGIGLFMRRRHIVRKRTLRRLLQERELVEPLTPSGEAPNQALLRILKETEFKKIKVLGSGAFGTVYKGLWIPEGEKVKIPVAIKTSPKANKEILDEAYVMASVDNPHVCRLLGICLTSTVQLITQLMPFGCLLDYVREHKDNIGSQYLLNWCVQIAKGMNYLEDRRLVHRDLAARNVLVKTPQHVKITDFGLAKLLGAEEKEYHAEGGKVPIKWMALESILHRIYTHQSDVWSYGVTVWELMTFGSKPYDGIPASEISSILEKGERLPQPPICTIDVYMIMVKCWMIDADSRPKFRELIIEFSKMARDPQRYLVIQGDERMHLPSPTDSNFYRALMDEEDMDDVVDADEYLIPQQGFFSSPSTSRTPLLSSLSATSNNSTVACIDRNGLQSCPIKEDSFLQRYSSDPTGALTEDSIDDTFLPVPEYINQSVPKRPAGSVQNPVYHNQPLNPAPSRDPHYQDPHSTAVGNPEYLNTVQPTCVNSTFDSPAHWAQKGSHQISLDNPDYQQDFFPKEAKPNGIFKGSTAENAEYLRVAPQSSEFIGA
T2 sequence (P00533 with tags, fused parts or gaps DEL746-750 limits assumed): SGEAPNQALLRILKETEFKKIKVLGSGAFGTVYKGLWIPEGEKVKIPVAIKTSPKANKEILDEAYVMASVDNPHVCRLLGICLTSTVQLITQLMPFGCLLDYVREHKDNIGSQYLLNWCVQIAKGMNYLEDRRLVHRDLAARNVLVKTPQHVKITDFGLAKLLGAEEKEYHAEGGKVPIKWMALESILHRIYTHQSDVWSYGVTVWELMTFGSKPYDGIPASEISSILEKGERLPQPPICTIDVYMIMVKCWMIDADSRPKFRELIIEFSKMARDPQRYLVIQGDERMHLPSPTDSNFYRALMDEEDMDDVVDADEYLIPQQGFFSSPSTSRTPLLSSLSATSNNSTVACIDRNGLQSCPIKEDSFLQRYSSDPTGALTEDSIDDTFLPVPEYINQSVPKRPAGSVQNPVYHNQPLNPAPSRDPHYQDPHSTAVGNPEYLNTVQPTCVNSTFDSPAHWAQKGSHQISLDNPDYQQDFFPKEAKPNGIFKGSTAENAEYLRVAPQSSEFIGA
T1 sequence (P00533 25-1210 L858R): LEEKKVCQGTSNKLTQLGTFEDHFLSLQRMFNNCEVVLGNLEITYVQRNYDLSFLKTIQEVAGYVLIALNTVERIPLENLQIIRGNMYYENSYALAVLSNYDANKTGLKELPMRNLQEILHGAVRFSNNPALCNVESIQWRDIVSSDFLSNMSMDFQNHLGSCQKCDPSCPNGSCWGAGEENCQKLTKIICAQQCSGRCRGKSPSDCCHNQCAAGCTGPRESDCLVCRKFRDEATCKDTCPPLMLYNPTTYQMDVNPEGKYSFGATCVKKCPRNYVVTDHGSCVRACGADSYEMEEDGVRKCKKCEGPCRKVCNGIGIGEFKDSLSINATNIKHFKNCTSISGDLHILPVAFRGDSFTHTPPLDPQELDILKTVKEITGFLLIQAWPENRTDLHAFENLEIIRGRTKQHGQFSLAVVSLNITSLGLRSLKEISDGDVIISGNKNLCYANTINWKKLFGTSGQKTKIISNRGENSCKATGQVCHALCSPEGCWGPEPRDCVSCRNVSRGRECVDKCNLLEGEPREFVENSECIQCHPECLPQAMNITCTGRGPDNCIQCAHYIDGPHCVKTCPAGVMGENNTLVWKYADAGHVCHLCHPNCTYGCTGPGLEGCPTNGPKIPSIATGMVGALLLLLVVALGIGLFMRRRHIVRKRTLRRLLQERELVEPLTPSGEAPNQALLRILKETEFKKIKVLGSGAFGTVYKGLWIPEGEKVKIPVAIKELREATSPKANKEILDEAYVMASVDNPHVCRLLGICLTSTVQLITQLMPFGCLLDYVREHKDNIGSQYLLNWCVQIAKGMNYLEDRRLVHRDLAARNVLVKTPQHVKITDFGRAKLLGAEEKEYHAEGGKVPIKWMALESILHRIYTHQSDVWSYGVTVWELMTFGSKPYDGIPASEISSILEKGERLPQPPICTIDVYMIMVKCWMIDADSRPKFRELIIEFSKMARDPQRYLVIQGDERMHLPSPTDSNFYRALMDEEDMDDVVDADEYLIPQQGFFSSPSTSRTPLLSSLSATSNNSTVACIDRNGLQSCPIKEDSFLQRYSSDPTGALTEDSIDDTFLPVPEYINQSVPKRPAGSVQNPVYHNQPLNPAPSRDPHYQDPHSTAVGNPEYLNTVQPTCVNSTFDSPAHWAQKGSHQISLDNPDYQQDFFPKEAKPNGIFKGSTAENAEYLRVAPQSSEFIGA

Compound: C[C@@H](O)[C@@H](C)Oc1cc(-c2cnn(C)c2)cc2ncnc(Nc3ccc4ncsc4c3)c12 [Example 184, (2R,3R)-3-((4-(benzo[d]thiazol-6-ylamino)-7-(1-methyl-1H-pyrazol-4-yl)quinazolin-5-yl)oxy)butan-2-ol]
IC50 [1]: ≤ 10 nM
IC50 [2]: ≤ 10 nM
IC50 [3]: ≤ 10 nM

Compound: COc1cc(O[C@H](C)C2COC2)c2c(Nc3ccc4ncsc4c3)ncnc2c1 [Example 124, (R)-N-(7-methoxy-5-(1-(oxetan-3-yl)ethoxy)quinazolin-4-yl)benzo[d]thiazol-6-amine]
IC50 [1]: 10.1 to 50 nM
IC50 [2]: ≤ 10 nM
IC50 [3]: ≤ 10 nM

Compound: C[C@H]1COCC[C@@H]1Oc1cc(-c2cnn(C)c2)cc2ncnc(Nc3ccc4ncsc4c3)c12 (racemic) [Example 26, trans-racemic N-(7-(1-methyl-1H-pyrazol-4-yl)-5-(((3S,4S)-3-methyltetrahydro-2H-pyran-4-yl)oxy)quinazolin-4-yl)benzo[d]thiazol-6-amine]
IC50 [1]: ≤ 10 nM
IC50 [2]: ≤ 10 nM
IC50 [3]: ≤ 10 nM

Compound: CN(C)[C@H]1CC[C@@H]1Oc1cc(-c2cnn(C)c2)cc2ncnc(Nc3ccc4ncsc4c3)c12 (single isomer, unassigned) [Example 154]
IC50 [1]: ≤ 10 nM
IC50 [2]: ≤ 10 nM
IC50 [3]: ≤ 10 nM

Compound: CN1CC[C@@H](Nc2cc3c(Nc4ccc5ncsc5c4)ncnc3cc2-c2cnn(C)c2)[C@H](F)C1 (single isomer, unassigned) [Example 325]
IC50 [1]: > 50.1 nM
IC50 [2]: 10.1 to 50 nM
IC50 [3]: ≤ 10 nM

Compound: Cn1cc(-c2cc(OCC3CCOC3)c3c(Nc4ccc5ncsc5c4)ncnc3c2)cn1 (single isomer, unassigned) [Example 41]
IC50 [1]: 10.1 to 50 nM
IC50 [2]: ≤ 10 nM
IC50 [3]: ≤ 10 nM

Compound: Cn1cc(-c2cc(OCC(=O)N3CC4(COC4)C3)c3c(Nc4ccc5ncsc5c4)ncnc3c2)cn1 [Example 270, 2-((4-(benzo[d]thiazol-6-ylamino)-7-(1-methyl-1H-pyrazol-4-yl)quinazolin-5-yl)oxy)-1-(2-oxa-6-azaspiro[3.3]heptan-6-yl)ethan-1-one]
IC50 [1]: 10.1 to 50 nM
IC50 [2]: ≤ 10 nM
IC50 [3]: ≤ 10 nM

Compound: C[C@@H](CN(C)C)Oc1cc(N2CCN(C)CC2)cc2ncnc(Nc3ccc4ncsc4c3)c12 (single isomer, unassigned) [Example 116]
IC50 [1]: > 50.1 nM
IC50 [2]: > 50.1 nM
IC50 [3]: 10.1 to 50 nM

Compound: CC[C@H](Oc1cc(-c2cnn(C)c2)cc2ncnc(Nc3ccc4ncsc4c3F)c12)C1CN(C)C1 (single isomer, unassigned) [Example 389]
IC50 [1]: 10.1 to 50 nM
IC50 [2]: 10.1 to 50 nM
IC50 [3]: ≤ 10 nM

The next lines start with the values.

IC50 [1]: 10.1 to 50 nM
IC50 [2]: ≤ 10 nM
IC50 [3]: ≤ 10 nM
Compound: CN1CC[C@H](Oc2cc(-c3cnn(C)c3)cc3ncnc(Nc4ccc5ncsc5c4)c23)C[C@@H]1CO [Example A08, [(2R,4S)-4-({4-[(1,3-benzothiazol-6-yl)amino]-7-(1-methyl-1H-pyrazol-4-yl)quinazolin-5-yl}oxy)-1-methylpiperidin-2-yl]methanol]

IC50 [1]: 10.1 to 50 nM
IC50 [2]: ≤ 10 nM
IC50 [3]: ≤ 10 nM
Compound: COc1cn(C)nc1-c1cc(O[C@H]2CCCN(C)C2)c2c(Nc3ccc4ncsc4c3)ncnc2c1 [Example 245, (S)-N-(7-(4-methoxy-1-methyl-1H-pyrazol-3-yl)-5-((1-methylpiperidin-3-yl)oxy)quinazolin-4-yl)benzo[d]thiazol-6-amine]

IC50 [1]: 10.1 to 50 nM
IC50 [2]: 10.1 to 50 nM
IC50 [3]: ≤ 10 nM
Compound: CN1CCC(Oc2cc(-c3cn(C)nc3OC(F)F)cc3ncnc(Nc4ccc5ncsc5c4)c23)CC1 [Example A18, N-(7-(3-(difluoromethoxy)-1-methyl-1H-pyrazol-4-yl)-5-((1-methylpiperidin-4-yl)oxy)quinazolin-4-yl)benzo[d]thiazol-6-amine]

IC50 [1]: 10.1 to 50 nM
IC50 [2]: 10.1 to 50 nM
IC50 [3]: ≤ 10 nM
Compound: COc1nn(C)cc1-c1cc(O[C@H]2COC[C@@H]2O)c2c(Nc3ccc4ncsc4c3)ncnc2c1 (single isomer, unassigned) [Example A49]
